Measured values taken from US10301299B2, “Glycosidase inhibitors” (Merck Patent GmbH, priority 2013, dated 2019).

Tests used:
Tg(tauP301L)4510 mice [1] = assay: Immunohistochemistry (AT8) and Bielschowsky stain of hippocampus in Tg4510 mice; format: in vivo, mouse; conditions: chronic 4 months
Experimental: (§1) Animals: Tg(tauP301L)4510 mice were generated as previously described (Santacruz et al., 2005, Science 309: 476-481). Animals were bred and housed at the McLaughlin Research Institute (Great Falls, Mont.). All experiments were approved by the MRI Institutional Animal Care and Use Committee (IACUC).
Immunohistochemistry: To examine changes in tangle pathology, a hemibrain was dissected and immersion fixed in 10% neutral buffered formalin for 24-48 h and subsequently embedded in paraffin blocks. 10 micron serial coronal sections were mounted onto Superfrost Plus slides, and stained using Bond Intense R kit. To detect dystrophic AT8 neurons, mounted slides were pretreated with antigen retrieval solutions for 10 min followed by washes with BOND wash buffer. Sections were subsequently quenched with hydrogen peroxide in Bond Intense R kit, blocked with M.O.M. blocking buffer (M.O.M Immunodetection Kits, Vector Laboratories), and then incubated with pS202/205 primary antibody (1:500; ThermoScientific). Sections were then incubated sequentially with biotinylated donkey anti-mouse secondary antibody (1:200; Jackson Immunoresearch), Streptavidin-HRP, and 3,3′-diaminobenzidine (both BOND Intense R kit). To detect agyrophilic tangles, sections were deparafinized, rehydrated in distilled water and treated with formaldehyde (4%) overnight at 37° C. Sections were washed in tap water, incubated in a 20% silver nitrate solution for 15 min in the dark, washed, incubated with ammoniated silver solution for 10 min in the dark, washed in ammonia water, and treated with developer. Sections were subsequently washed in ammonia water, distilled water, thiosulfate sodium, dehydrated and mounted.

Tg(tauP301L)4510 mice [2] = assay: Western blot of O-GlcNAcylation and tau phosphorylation in brain of Tg4510 mice; format: in vivo, mouse
Experimental: as §1
Tau immunoprecipitation: To immunoprecipitate tau protein from brain lysates a Crosslink Immunoprecipitation kit (Pierce 26147) was used. The A/G resin was crosslinked to 10 μg of the HT7 tau antibody (Thermo Scientific MN1000) or control mouse IgG (Santa Cruz Biotech sc-2025) via the manufacturer's protocol. 250 μg of brain lysates prepared as described below was incubated with the resin-coupled tau antibody overnight at 4-C. Samples were eluted with 50 μl of low pH Elution buffer and immediately centrifuged into collection tubes containing 5 μl of 1M Tris, pH 9.5. Immunoprecipitated tau was subjected to Western blotting as described below.
Western Blot: To examine changes in O-GlcNAcylation and phosphorylation, animals were euthanized 4 h after injection in the acute or subchronic studies and 24 h after the last injection in the chronic study. Hemi-forebrains were rapidly dissected and frozen on dry ice. Tissue samples were homogenized in Phosphosafe Buffer (EMD Chemicals), followed by a low-speed centrifugation (15,000 g) to remove cellular debris. The resulting supernatant (low-speed supernatant, Lss) was assayed to determine protein concentrations by Lowry method. O-GlcNAcylation and phosphorylation were determined in 20 μg protein samples subjected to 4-15% SDS-PAGE (Tris-HCl gels, Bio-Rad), followed by a transfer to nitrocellulose membranes (Invitrogen, IBlot system). Membranes were blocked in Licor blocking buffer at room temperature for 1 h and incubated in primary antibody overnight at 4° C. Total protein O-GlcNAcylation was detected using the RL2 antibody (1:500, ThermoScientific), tau O-GlcNAcylation was detected using the Otau(S400) antibody (1:500) and tau phosphorylation was detected using AT8 (1:500, ThermoScientific), pS396, pS262, pS356 (1:500, Abcam) and pS400 (1:5000, GenScript). GAPDH (1:1000, Abcam) or total tau (1:50,000 ThermoScientific) antibodies served as internal loading controls. Membranes were incubated with species-specific fluorophore-conjugated secondary (1:10,000; Licor) antibodies for 1 h at room temperature and detected using the Licor Odyssey. […]

## CCN=C1N[C@@H]2[C@@H](O)[C@H](O)[C@@H](CO)O[C@@H]2S1 [ThiametG]
Tg(tauP301L)4510 mice [1]; CA1 region of the hippocampus
  pS202/205 (AT8) positive dystrophic neurons: significantly reduced
  tangle pathology (Bielschowsky staining): significant reduction
Tg(tauP301L)4510 mice [1]; CA3 region of the hippocampus
  pS202/205 (AT8) positive dystrophic neurons: significantly reduced
  tangle burden (Bielschowsky staining): no difference
Tg(tauP301L)4510 mice [2]; 4 months of dosing
  tau O-GlcNAcylation elevated (Otau(S400)): 9 fold
Tg(tauP301L)4510 mice [2]; 4 months, 500 mg/kg/day
  levels of total protein O-GlcNAcylation: 185%
Tg(tauP301L)4510 mice [2]; 14 days
  tau phosphorylation at S202/205: returned towards basal levels
  tau phosphorylation at S262: returned towards basal levels
  tau phosphorylation at S356: still significantly reduced
  tau phosphorylation at S396: returned towards basal levels
Tg(tauP301L)4510 mice [2]; 14 days of administration, 500 mg/kg/day, vs vehicle
  total protein O-GlcNAcylation in the CNS: significant increase
Tg(tauP301L)4510 mice [2]; acute treatment
  tau phosphorylation at S400: did not alter
Tg(tauP301L)4510 mice [2]; repeated injection (14 days), vs vehicle
  increase in tau O-GlcNAcylation (Otau(S400)): 9 fold
Tg(tauP301L)4510 mice [2]; single injection
  tau O-GlcNAcylation (Otau(S400)): small increase
  tau phosphorylation at S202/205: reduced
  tau phosphorylation at S262: reduced
  tau phosphorylation at S356: reduced
  tau phosphorylation at S396: reduced
Tg(tauP301L)4510 mice [2]; single injection, 500 mg/kg/day, 4 h, vs vehicle
  total protein O-GlcNAcylation in the CNS: significant increase
